Measurements from ChEMBL document CHEMBL1201862, “PubChem BioAssay data set” (2004).
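Briefly, cells in 96-well plates were exposed to five compound concentrations for 48 h, and endpoints were estimated by linear interpolation. GI50 is the concentration that inhibits growth by half.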 The source made the active and inactive calls. Rule as the data show it: active = GI50 up to about 1.1 µM and inactive = higher.

Key:
Experiment in all cases: NCI tumour cell line growth inhibition, 48 h
TK-10 = tested on: TK-10
SF-539 = tested on: SF-539
CAKI-1 = tested on: CAKI-1
SW-620 = tested on: SW-620
OVCAR-5 = tested on: OVCAR-5
DMS-273 = tested on: DMS-273
LXFL 529 = tested on: LXFL 529
IGROV-1 = tested on: IGROV-1
M19-MEL = tested on: M19-MEL
KM12 = tested on: KM12
NCI-H23 = tested on: NCI-H23
K562 = tested on: K562
RXF 393 = tested on: RXF 393
SF-268 = tested on: SF-268
OVCAR-3 = tested on: OVCAR-3
PC-3 = tested on: PC-3
MDA-MB-231 = tested on: MDA-MB-231
NCI/ADR-RES = tested on: NCI/ADR-RES
DU-145 = tested on: DU-145
MDA-MB-435 = tested on: MDA-MB-435

SMILES | GI50 (TK-10) | GI50 (SF-539) | GI50 (CAKI-1) | GI50 (SW-620) | GI50 (OVCAR-5) | GI50 (DMS-273) | GI50 (LXFL 529) | GI50 (IGROV-1) | GI50 (M19-MEL) | GI50 (KM12) | GI50 (NCI-H23) | GI50 (K562) | GI50 (RXF 393) | GI50 (SF-268) | GI50 (OVCAR-3) | GI50 (PC-3) | GI50 (MDA-MB-231) | GI50 (NCI/ADR-RES) | GI50 (DU-145) | GI50 (MDA-MB-435)
CC(=O)/C=C\C(=O)NNS(=O)(=O)c1ccc(C)cc1 | > 100 µM (inactive) | > 100 µM (inactive) | > 100 µM (inactive) | > 100 µM (inactive) | > 100 µM (inactive) | > 100 µM (inactive) | > 100 µM (inactive) | > 100 µM (inactive) | > 100 µM (inactive) | > 100 µM (inactive) | > 100 µM (inactive) | > 100 µM (inactive) | > 100 µM (inactive) | > 100 µM (inactive) | > 100 µM (inactive) |  |  |  |  | 
NC1=NS(=O)(=O)Nc2nc(-c3ccc([N+](=O)[O-])o3)[nH]c21 | 19 µM (inactive) | 17.3 µM (inactive) | 21.3 µM (inactive) | 13.8 µM (inactive) | 19.4 µM (inactive) | 21.4 µM (inactive) | 12.7 µM (inactive) | 17.2 µM (inactive) | 16.6 µM (inactive) | 18.6 µM (inactive) | 19.6 µM (inactive) | 5.38 µM (inactive) | 12.9 µM (inactive) | 20 µM (inactive) | 24.7 µM (inactive) |  |  |  |  | 
CN(C)CC1(C)CC/C(=C\c2ccc(Cl)cc2)C1=O (stereo not given) | 88.5 µM (inactive) | 46.5 µM (inactive) | 22.7 µM (inactive) | 16.5 µM (inactive) | > 100 µM (inactive) | 20.7 µM (inactive) | 21.1 µM (inactive) | 74 µM (inactive) | 50.8 µM (inactive) | 31.8 µM (inactive) | 57.4 µM (inactive) | 40.6 µM (inactive) | 22.4 µM (inactive) | 36.9 µM (inactive) | 34.7 µM (inactive) |  |  |  |  | 
CCCN(CCCCC(NC(C)=O)C(=O)NCc1ccccc1)C(=O)NC (stereo not given) | > 100 µM (inactive) | > 100 µM (inactive) | > 100 µM (inactive) | > 100 µM (inactive) | > 100 µM (inactive) | > 100 µM (inactive) | > 100 µM (inactive) | > 100 µM (inactive) | > 100 µM (inactive) | > 100 µM (inactive) | > 100 µM (inactive) | > 100 µM (inactive) | > 100 µM (inactive) | > 100 µM (inactive) | > 100 µM (inactive) |  |  |  |  | 
Cc1c(N)nc(C(CC(N)=O)NCC(N)C(N)=O)nc1C(=O)NC(C(=O)NC(C)C(O)C(C)C(=O)NC(C(=O)NCCc1nc(-c2nc(C(=O)NCCCNCCCCN)cs2)cs1)C(C)O)C(OC1OC(CO)C(O)C(O)C1OC1OC(CO)C(O)C(OC(N)=O)C1O)c1c[nH]cn1 (stereo not given) | > 10 µM (inactive) | 0.0655 µM (active) | 0.00178 µM (active) | > 10 µM (inactive) | > 10 µM (inactive) | 0.957 µM (active) | > 10 µM (inactive) | > 10 µM (inactive) | > 10 µM (inactive) | > 10 µM (inactive) | 1.79 µM (inactive) | > 10 µM (inactive) | 0.29 µM (active) | 1.18 µM (inactive) | > 6.28 µM (inactive) |  |  |  |  | 
O=c1[nH]cnc2[nH]nnc12 | 7.52 µM (inactive) | 3.85 µM (inactive) | 1.25 µM (inactive) | 1.49 µM (inactive) | 29.8 µM (inactive) | 6 µM (inactive) | 84.7 µM (inactive) | 16 µM (inactive) | 4.02 µM (inactive) | 32.7 µM (inactive) | 35.6 µM (inactive) | 0.593 µM (active) | 2.62 µM (inactive) | 1.06 µM (active) | 14 µM (inactive) |  |  |  |  | 
CN(C)CCCNc1ccc2nnn3c4ccc([N+](=O)[O-])cc4c(=O)c1c23 | 1.13 µM (inactive) | 2.13 µM (inactive) | 1.73 µM (inactive) | 0.45 µM (active) | 1.99 µM (inactive) | 0.685 µM (active) | 1.22 µM (inactive) | 1.95 µM (inactive) | 3.65 µM (inactive) | 0.986 µM (active) | 2.03 µM (inactive) | 0.589 µM (active) | 1.12 µM (active) | 1.14 µM (inactive) | 2.55 µM (inactive) | 1.28 µM (inactive) | 0.274 µM (active) | 0.685 µM (active) | 1.71 µM (inactive) | 1.49 µM (inactive)
